We go through five compounds from patent US20260159482A1, “CRYSTAL FORM AND AMORPHOUS FORM OF CAREBASTINE P-TOLUENESULFONATE” (priority 2023, published 2026).

The conditions of data set [1]: for AUC0-t / Cmax / T1/2 / Tmax / increase in AUC0-t compared with Comparative Example 1 / increase in AUC0-t compared with Comparative Example 2 / increase in Cmax compared with Comparative Example 1 / increase in Cmax compared with Comparative Example 2: male; for AUC0-t / Cmax / T1/2 / Tmax / Tmax compared with Comparative Example 2 / half-life (T1/2) compared with Comparative Example 2 / increase in AUC0-t compared with Comparative Example 1 / increase in AUC0-t compared with Comparative Example 2 / increase in Cmax compared with Comparative Example 1 / increase in Cmax compared with Comparative Example 2: dog, in vivo; for AUC0-t / Cmax / T1/2 / Tmax: po, 2.23 mg; for half-life (T1/2) compared with Comparative Example 1 / peak time (Tmax) compared with Comparative Example 1: vs ebastine. As for the experimental part: Ebastine (Comparative Example 1), carebastine (Comparative Example 2), a crystal form of carebastine p-toluenesulfonate (Example 2) and an amorphous form of carebastine p-toluenesulfonate (Example X) were prepared into enteric capsules, respectively.
• Species: Beagle; • Level: normal level; • Animal number and gender: 8 males; • Age: […] old during grouping; • Body weight: the weight during grouping ranged from 8.90 to 10.3 kg, with an average of 10.0 kg.
Dose: in terms of carebastine, each group was dosed at equimolar dose, and appropriate amounts of compounds were weighed and filled into capsules. That is, the drug of carebastine in each capsule is 2.23 mg.
After the test compounds were filled into capsules, 2×4 crossover tests were carried out according to the table above. A 7-day elution period was counted from the start of administration. The corresponding test compounds were administered to each group in different test cycles.
All animals were fasted overnight (for 12 h or more) before each administration, and feeding was resumed 4 h after the administration. The animals had free access to drinking water.
Blood samples were collected at 0 h before administration, and at 10 min, 20 min, 30 min, 45 min, 1 h, 2 h, 3 h, 5 h, 6 h, 8 h, 10 h and 24 h after administration, for a total of 13 blood collection time points.
Approximately 2 mL of blood was collected from a forelimb vein at the set blood collection time points and placed in an EDTA-K2 anticoagulation tube. Whole blood samples were kept at room temperature for 1.5 h after the collection and then centrifuged (at 3000 g centrifugal force, 4° C.) for 10 min.
The concentration of carebastine in plasma was determined using liquid chromatography-mass spectrometry-mass spectrometry (HPLC-MS/MS).
The pharmacokinetic parameters of each group were calculated using the non-compartmental model with the WinNonlin software (version 8.3 or higher).

The nature of data set [2]: Stability study: influencing factors (high temperature, high humidity, light exposure), HPLC content. Format: physicochemical. Conditions: for Content, 0 day: HPLC external standard; for Content, High humidity, 30 days: high humidity (RH80%); for Content, High temperature, 30 days: high temperature (60° C.); for Content, Light exposure, 30 days: light exposure (5000 Lux). As for the experimental part:
3 parts of each of the samples, carebastine (Comparative Example 2), the crystal form of carebastine p-toluenesulfonate (Example 2), and the amorphous form of carebastine p-toluenesulfonate (Example X), were weighed and placed in a weighing bottle, respectively, and each group of samples was placed under conditions of high temperature (60° C.), high humidity (RH80%) and light exposure (5000 Lux). Then, the samples were taken for detection after 30 days.
Detection method: An appropriate amount of each sample was taken, weighed precisely, dissolved with acetonitrile and quantitatively diluted into a solution containing about 0.08 mg of sample per 1 ml. High performance liquid chromatography (HPLC) was used, with octadecylsilane-bonded silica gel as filler, water-acetonitrile (1:1) as mobile phase, a detection wavelength of 256 nm, a column temperature of 35° C. and an injection volume of 10 μl. Each sample solution was injected into the liquid chromatograph instrument, and the chromatograms were recorded. The content of carebastine was calculated by an external standard method, and the impurity content was calculated by a peak area normalization method.

The nature of data set [3]: Hygroscopicity study (weight gain at 25° C., RH 80%, 24 h). Format: physicochemical. The protocol: • (1) The day prior to the test, a dry glass weighing bottle (with an outer diameter of 50 mm and a height of 15 mm) with a lid was placed in a suitable constant temperature dryer (the lower part of which holds a saturated solution of ammonium chloride or ammonium sulphate) at 25° C.±1° C. or an artificial climate chamber (at a temperature of 25° C.±1° C. and a relative humidity of 80%±2%), and the weight (m1) of the bottle with the lid was precisely weighed. • (2) An appropriate amount of the sample to be tested was evenly laid in the weighing bottle, with a thickness of generally about 1 mm, and the weight (m2) of the bottle with the lid was precisely weighed. • (3) The weighing bottle was kept open and placed together with the lid under constant temperature and humidity for 24 h. • (4) The weighing bottle was covered with the lid, and the weight (m3) was precisely weighed. • (5) Percentage of weight gain=(m3−m2)/(m2−m1)×100%.

Structures can show the parent of a compound that is named as a salt. Where two headings read alike, the source gives them in different places.

Regarding `CC(C)(C(=O)O)c1ccc(C(=O)CCCN2CCC(OC(c3ccccc3)c3ccccc3)CC2)cc1` [Comparative Example 2, 2-(4-(4-(4-(diphenylmethoxy)piperidine-1-yl)butyryl)phenyl)-2-methylpropanoic acid, reference compound], in data set [1] (beagle), the AUC0-t was found to be 840 ± 161 ng·h/mL, the Cmax (commonly the highest concentration seen after dosing) was 191 ± 51.4 ng/mL, the T1/2 was 3.74 ± 2.02 h and the Tmax (commonly the time from dosing to the highest level) is listed as 0.82 ± 0.52 h. In addition, in data set [2], the “Content, 0 day” value is recorded as 99.18%. Further, the “content decrease under high temperature and high humidity” value in data set [2] (30 days, high temperature and high humidity) is listed as “more than 1.0%”. Also, in data set [2] (30 days, light exposure), the “content decrease under light exposure” value is on record as “more than 10%”. Also, the “content of the maximum single impurity” value in data set [2] (after 30 days of influencing factor tests, peak area normalization) is “more than 0.5%”. Besides, in data set [2] (30 days), the “Content, High humidity, 30 days” value is reported as 98.11%; the “Content, High temperature, 30 days” value turned out to be 98.12%; the “Content, Light exposure, 30 days” value is given as 87.28%. Further, in data set [3], the “Percentage of weight gain (%)” value is 6%.
For `CC(C)(C(=O)O)c1ccc(C(=O)CCCN2CCC(OC(c3ccccc3)c3ccccc3)CC2)cc1.Cc1ccc(S(=O)(=O)O)cc1` [Example X, carebastine p-toluenesulfonate], in data set [1] (beagle), the “half-life (T1/2) compared with Comparative Example 1” value is “prolonged”, the “peak time (Tmax) compared with Comparative Example 1” value is recorded as “significantly shorter”, the “increase in AUC0-t compared with Comparative Example 1” value is listed as ~31% and the “increase in AUC0-t compared with Comparative Example 2” value was ~17%. Besides, in data set [1] (beagle), the “increase in Cmax compared with Comparative Example 1” value was ~46% and the “increase in Cmax compared with Comparative Example 2” value is given as ~37%. In data set [1], the “Tmax compared with Comparative Example 2” value is on record as “essentially the same” and the “half-life (T1/2) compared with Comparative Example 2” value was “prolonged”. The “Content, 0 day” value in data set [2] came to 98.59%. Further, in data set [2] (30 days), the “Content, High humidity, 30 days” value turned out to be 98.58%; the “Content, High temperature, 30 days” value was determined as 98.54%; the “Content, Light exposure, 30 days” value is 98.51%. Further, the “Percentage of weight gain (%)” value in data set [3] was found to be 0.3%.
Consider `CC(C)(C(=O)O)c1ccc(C(=O)CCCN2CCC(OC(c3ccccc3)c3ccccc3)CC2)cc1.Cc1ccc(S(=O)(=O)O)cc1` [Example 2, carebastine p-toluenesulfonate], for which, in data set [1] (beagle, vs amorphous form), the “Cmax and AUC0-t compared with Example X” value is reported as “slightly higher”; the “T1/2 compared with Example X” value is recorded as “slightly longer”. In addition, in data set [1] (beagle), the “half-life (T1/2) compared with Comparative Example 1” value was “prolonged”, the “peak time (Tmax) compared with Comparative Example 1” value was “significantly shorter”, the “increase in AUC0-t compared with Comparative Example 1” value was “about 55%” and the “increase in AUC0-t compared with Comparative Example 2” value is “about 38%”. Further, in data set [1] (beagle), the “increase in Cmax compared with Comparative Example 1” value is reported as “about 65%” and the “increase in Cmax compared with Comparative Example 2” value is on record as “about 55%”. Moreover, in data set [1], the “Tmax compared with Comparative Example 2” value is “essentially the same” and the “half-life (T1/2) compared with Comparative Example 2” value is “prolonged”. In data set [2], the “Content, 0 day” value amounted to 99.42%. In data set [2] (30 days), the “Content, High humidity, 30 days” value stood at 99.42%; the “Content, High temperature, 30 days” value came out at 99.43%; the “Content, Light exposure, 30 days” value was found to be 99.39%. The “Percentage of weight gain (%)” value in data set [3] is listed as −0.1%.
In the case of `CC(C)(C(=O)O)c1ccc(C(=O)CCCN2CCC(OC(c3ccccc3)c3ccccc3)CC2)cc1` [Comparative Example 3, carebastine hydrochloride, reference compound], the “Percentage of weight gain (%)” value in data set [3] (hydrochloride) was 15.9%.
For `CC(C)(C)c1ccc(C(=O)CCCN2CCC(OC(c3ccccc3)c3ccccc3)CC2)cc1` [Comparative Example 1, ebastine], in data set [1] (beagle), the AUC0-t stood at 749 ± 127 ng·h/mL, the Cmax is listed as 179 ± 85.7 ng/mL, the T1/2 was determined as 4.06 ± 1.19 h and the time to peak (Tmax) worked out at 2.25 ± 0.7 h.
